Data taken from US11390617B2, “Methods of treating non-Hodgkin lymphoma using 2-(2,6-dioxopiperidin-3-yl)-4-((2-fluoro-4-((3-morpholinoazetidin-1-yl)methyl)benzyl)amino)isoindoline-1,3-dione” (Celgene Corporation, priority 2019, dated 2022).

Tests used:
OCI-LY19 = assay: NHL cell line viability/apoptosis 384-well flow cytometry assay; type: cell-based; conditions: OCI-LY19 (DLBCL), 120 hours
Procedure, shortened: (§1)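 120 h exposure, 0.00015–10 μM, 0.1% DMSO final. Readout: Annexin V/DRAQ7 flow cytometry. Viable = double negative, normalized to DMSO control; IC50/Emax/AUC from log(inhibitor) variable-slope fit. Apoptosis = Annexin V+ (early + late); EC50/Ymax/AUC from log(agonist) fit.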

SU-DHL-16 = assay: as above; type: cell-based; conditions: SU-DHL-16 (DLBCL), 120 hours
Procedure, shortened: as §1

SU-DHL-6 = assay: as above; type: cell-based; conditions: SU-DHL-6 (DLBCL), 120 hours
Procedure, shortened: as §1

SU-DHL-8 = assay: as above; type: cell-based; conditions: SU-DHL-8 (DLBCL), 120 hours
Procedure, shortened: as §1

U-2946 = assay: as above; type: cell-based; conditions: U-2946 (DLBCL), 120 hours
Procedure, shortened: as §1

U-2973 = assay: as above; type: cell-based; conditions: U-2973, 120 hours
Procedure, shortened: as §1

WILL-1 = assay: as above; type: cell-based; conditions: WILL-1 (DLBCL), 120 hours
Procedure, shortened: as §1

[1] = system: RL follicular lymphoma xenograft tumors; assay: RL (follicular lymphoma) xenograft model, monotherapy; type: in vivo, female SCID mice; conditions: 5 days on 2 days off for 3 weeks
Description: Anti-tumor activity of Compound 1 was evaluated as monotherapy (between 1 and 30 mg/kg, qd) in RL (follicular lymphoma) xenograft model.
Xenograft study was conducted with female SCID mice bearing RL follicular lymphoma xenograft tumors. Female SCID mice were inoculated subcutaneously with RL cells in the flank region above the right hind leg. Following inoculation of animals, the tumors were allowed to grow to approximately 200 mm^3 prior to randomization. On day 14 following tumor cell inoculation, the mice bearing RL tumors ranging between 150 and 250 mm^3 were pooled together and randomized into various treatment groups. Compound 1 was formulated in 0.5% Methyl Cellulose, 0.25% Tween 80 and 50 mM Citrate pH 3 in water. Compound 1 at 1, 3, 10 or 30 mg/kg was orally administered once daily with a 5 days on and 2 days off schedule for 3 weeks starting from day 14 after tumor cell inoculation. Tumors were measured twice a week using calipers and tumor volumes were calculated using the formula of W^2×L/2. Statistical analysis was performed using a one-way or 2-way analysis of variance (ANOVA). Synergy calculations were performed using fractional product method.

[2] = Homo sapiens, read-out: IC50 (% Viable Cells)
[3] = read-out: IC50 (% Viable Cells)
[4] = 3, 10 and 30 mg/kg oral once daily

## O=C1CC[C@H](N2C(=O)c3cccc(NCc4ccc(CN5CC(N6CCOCC6)C5)cc4F)c3C2=O)C(=O)N1 [Compound 1, (S)-2-(2,6-dioxopiperidin-3-yl)-4-((2-fluoro-4-((3-morpholinoazetidin-1-yl)methyl)benzyl)amino)isoindoline-1,3-dione]
OCI-LY19; Homo sapiens
  EC50: 283 nM
OCI-LY19; [2]
  IC50: 29.4 nM
OCI-LY19
  AUC (% Viable Cells): 72.49
  AUC (Apoptosis): 706.2
  Emax (% Viable Cells): 3.228%
  Ymax (Apoptosis): 80.91%
SU-DHL-16; Homo sapiens
  EC50: 662 nM
SU-DHL-16; [2]
  IC50: 154 nM
SU-DHL-16
  AUC (% Viable Cells): 149.7
  AUC (Apoptosis): 492.6
  Emax (% Viable Cells): 7.137%
  Ymax (Apoptosis): 60.79%
SU-DHL-6; Homo sapiens
  EC50: 104 nM
SU-DHL-6; [2]
  IC50: 32.5 nM
SU-DHL-6
  AUC (% Viable Cells): 19.94
  AUC (Apoptosis): 920.7
  Emax (% Viable Cells): 0.2469%
  Ymax (Apoptosis): 95.92%
SU-DHL-8; Homo sapiens
  EC50: 602 nM
SU-DHL-8; [2]
  IC50: 486 nM
SU-DHL-8
  AUC (% Viable Cells): 119.5
  AUC (Apoptosis): 363.2
  Emax (% Viable Cells): 2.081%
  Ymax (Apoptosis): 85.44%
U-2946
  AUC (% Viable Cells): 45.47
  AUC (Apoptosis): 762.6
  EC50: 192 nM
  Emax (% Viable Cells): 0.4821%
  Ymax (Apoptosis): 93.34%
U-2946; [3]
  IC50: 4.6 nM
U-2973; Homo sapiens
  EC50: 2160 nM
U-2973; [2]
  IC50: 6780 nM
U-2973
  AUC (% Viable Cells): 853.4
  AUC (Apoptosis): 391.9
  Emax (% Viable Cells): 19.45%
  Ymax (Apoptosis): 60.8%
WILL-1
  AUC (% Viable Cells): 233.7
  AUC (Apoptosis): 549.4
  EC50: 2520 nM
  Emax (% Viable Cells): 4.216%
  Ymax (Apoptosis): 79.51%
WILL-1; [3]
  IC50: 817 nM
[1]; 1 mg/kg oral once daily
  inhibited RL follicular lymphoma tumor growth: −96.8%
[1]; [4]
  tumor free animals: all the animals became tumor free
  tumor growth: completely inhibited
